The results in this text go back to the NIST ThermoML archive (doi:10.1016/j.fluid.2014.05.023).

“And” between values parts separate entries of the source, which are not always exact repeats. Equal values may be shown once. Numbers after ± are expanded uncertainties.

A short description of the series: activity coefficient (dimensionless); of the first substance listed, at infinite dilution; xn = mol fraction of the nth substance listed. The note with it: 101 kPa, Liquid, Chromatography, x1 = 0.

Regarding `CCCCOC(C)=O` [butyl ethanoate] + O, the activity coefficient by setting is: (273.35 K) 613 ± 42; (283.15 K) 799 ± 55; (293.15 K) 942 ± 65; (298.15 K) 1040 ± 72; (303.15 K) 1080 ± 75; (313.15 K) 1140 ± 79. For the same compound, the activity coefficient amounted to 1160 ± 80 (323.15 K) and 1140 ± 78 (333.15 K).
Consider `CCOC(C)=O` [ethyl acetate] + O, for which the activity coefficient (273.35 K) worked out at 44.5 ± 3; the activity coefficient (283.15 K) is 54.9 ± 3.8; the activity coefficient (293.15 K) was 64.8 and 68; the activity coefficient (298.15 K) is 69.2 ± 4.7; the activity coefficient (303.15 K) came out at 73.6 ± 5; the activity coefficient (313.15 K) amounted to 80.1 ± 5.5.
For the compound `CCCC(=O)OCC` [ethyl butanoate] + O, the activity coefficient reads like this: (293.15 K) 993 ± 68; (303.15 K) 1090 ± 75; (313.15 K) 1150 ± 79; (323.15 K) 1180 ± 81; (333.15 K) 1180 ± 81; (341.15 K) 1110 ± 120. Further, the activity coefficient (351.15 K) stood at 1030 ± 110.
For `CCOC(=O)CC` [ethyl propanoate] + O, the activity coefficient was 252 ± 17 (293.15 K); 291 ± 20 (303.15 K); 312 ± 21 (313.15 K); 329 ± 23 (323.15 K); 343 ± 24 (333.15 K); 332 and 328 (341.15 K). The activity coefficient is, setting by setting: (351.15 K) 366 and 321; (361.25 K) 283 ± 57.
As for `CCCOC(C)=O` [propyl ethanoate] + O, the activity coefficient (273.35 K) worked out at 172 ± 12; the activity coefficient (283.15 K) was found to be 217 ± 15; the activity coefficient (293.15 K) is 274 and 257; the activity coefficient (298.15 K) was 261 and 270; the activity coefficient (303.15 K) came out at 281 ± 19; the activity coefficient (313.15 K) turned out to be 302 ± 21. Also, the activity coefficient worked out at 319 ± 22 (323.15 K) and 321 ± 22 (333.15 K).
